In patent US20260021061A1, “ARIADNE AND ANALOGS FOR THE TREATMENT OF NEUROLOGICAL AND NEUROMUSCLAR DISORDERS” (priority 2022, published 2026):

How the values were obtained:
patients = details: cited from earlier work
[1] = system: auxilin knockout (KO) mice; assay: Balance beam test in auxilin KO mouse model of Parkinson's Disease; type: in vivo; details: Aux-KO mice 9-12 months; 10 mg/kg intraperitoneal; 15 to 30 minutes after treatment
Excerpt: R-Ariadne ameliorates motor abnormalities in a mouse model of Parkinson's Disease. In the 1978 patent from the Bristol Laboratories, the inventors noted complete remission of Parkinson's symptoms in two patients (Partyka el al., U.S. Pat. No. 4,105,695, 1978). To address and examine these claims via reverse translation in mice, we used a novel model of PD based on auxilin knockout (KO) mice (Vidyadhara et al., 2022). Auxilin is a clathrin uncoating protein that participates in clathrin mediated endocytosis of synaptic vesicles (SV), enabling SV recycling and neurotransmission (Vidyadhara et al., 2022). Loss-of-function mutations in auxilin (DNAJC6/PARK19) cause PD. Auxilin KO mice display cardinal features of PD such as progressive motor deficits, nigral dopaminergic neuronal loss, α-synuclein pathology, and neuroinflammation. 9-12 month old Aux-KO mice were previously shown to respond to L-DOPA treatment, which ameliorated PD-like motor abnormalities (Vidyadhara et al., 2022). […] The balance beam test evaluates fine motor skills such as ability to walk on a raised narrow beam to reach a safety box, measured as a number of runs/minute and time taken to cross the beam (FIGS. 9-10). […]

5-HT2A = 5-HT2A (Homo sapiens, UniProt P28223); assay: Calcium flux assay; type: cell-based
5-HT2A, sequence (P28223 whole entry): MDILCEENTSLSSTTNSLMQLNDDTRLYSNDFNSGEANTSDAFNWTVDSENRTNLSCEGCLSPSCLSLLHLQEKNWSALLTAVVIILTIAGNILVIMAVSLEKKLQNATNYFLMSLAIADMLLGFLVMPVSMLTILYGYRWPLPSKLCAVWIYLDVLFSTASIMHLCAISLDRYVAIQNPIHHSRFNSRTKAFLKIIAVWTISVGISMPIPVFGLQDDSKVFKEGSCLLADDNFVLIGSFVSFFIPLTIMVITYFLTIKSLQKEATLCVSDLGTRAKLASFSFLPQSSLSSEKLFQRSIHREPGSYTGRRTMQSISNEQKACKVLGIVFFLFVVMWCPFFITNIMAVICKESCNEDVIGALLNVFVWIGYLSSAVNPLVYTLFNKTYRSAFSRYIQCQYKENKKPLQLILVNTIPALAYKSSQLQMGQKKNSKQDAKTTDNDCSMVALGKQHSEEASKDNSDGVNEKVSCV
Procedure: Therefore, an orthogonal assay measuring calcium flux was also performed for the 5-HT2 receptors (Klein et al., 2020).

[2] = biological target: T1, Serotonin (5-Hydroxytryptamine) 5-HT2A (Homo sapiens, UniProt P28223); assay: SafetyScreen44 271650; type: binding; details: 10 μM, [3H]Ketanserin, recombinant
T1 construct: purchased Eurofins-Panlabs (contract screen SafetyScreen44) assay ID 271650
T1 sequence (P28223 whole entry): as above
Procedure: (§1) A broad screen of 44 molecular targets (SafetyScreen44, Eurofins-Panlabs) for Ariadne were performed, which includes G protein-coupled receptors, steroid nuclear receptors, ion channels, neurotransmitter transporters, and metabolic and signaling enzymes. Only two molecular targets, 5-HT2A and 5-HT2B receptors, emerged above the positive hit threshold, defined as 50% displacement of standard radioligands by 10 uM concentration of Ariadne (FIG. 1b, and Table 1).
(§2) For species, “H”=human, “R”=rat. Test compound screened at all targets at concentration of 10 μM.

[3] = biological target: T2, Cholecystokinin CCK1 (CCKA) (Homo sapiens, UniProt P32238); assay: SafetyScreen44 218030; type: binding; details: 10 μM; [125I]CCK-8; recombinant
T2 construct: Eurofins-Panlabs (contract screen) 218030
T2 sequence (P32238 whole entry): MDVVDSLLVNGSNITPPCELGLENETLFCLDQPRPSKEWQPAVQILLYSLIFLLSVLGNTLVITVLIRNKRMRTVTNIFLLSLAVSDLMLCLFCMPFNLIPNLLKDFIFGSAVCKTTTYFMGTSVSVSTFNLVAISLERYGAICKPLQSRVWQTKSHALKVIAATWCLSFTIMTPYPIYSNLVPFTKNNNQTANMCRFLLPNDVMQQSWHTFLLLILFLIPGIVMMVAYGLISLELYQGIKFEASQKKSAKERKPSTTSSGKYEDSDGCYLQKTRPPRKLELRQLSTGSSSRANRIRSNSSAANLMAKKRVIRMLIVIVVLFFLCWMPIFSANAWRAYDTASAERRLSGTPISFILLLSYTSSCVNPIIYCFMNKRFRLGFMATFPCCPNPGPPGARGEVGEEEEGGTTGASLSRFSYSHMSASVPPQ
Procedure: as §1, §2

[4] = biological target: T3, Serotonin (5-Hydroxytryptamine) 5-HT3 (Homo sapiens, UniProt P46098); assay: SafetyScreen44 271910; type: binding; details: 10 μM; [3H]GR-65630; recombinant
T3 construct: purchased Eurofins-Panlabs (contract screen SafetyScreen44) assay ID 271910
T3 sequence (P46098 24-478): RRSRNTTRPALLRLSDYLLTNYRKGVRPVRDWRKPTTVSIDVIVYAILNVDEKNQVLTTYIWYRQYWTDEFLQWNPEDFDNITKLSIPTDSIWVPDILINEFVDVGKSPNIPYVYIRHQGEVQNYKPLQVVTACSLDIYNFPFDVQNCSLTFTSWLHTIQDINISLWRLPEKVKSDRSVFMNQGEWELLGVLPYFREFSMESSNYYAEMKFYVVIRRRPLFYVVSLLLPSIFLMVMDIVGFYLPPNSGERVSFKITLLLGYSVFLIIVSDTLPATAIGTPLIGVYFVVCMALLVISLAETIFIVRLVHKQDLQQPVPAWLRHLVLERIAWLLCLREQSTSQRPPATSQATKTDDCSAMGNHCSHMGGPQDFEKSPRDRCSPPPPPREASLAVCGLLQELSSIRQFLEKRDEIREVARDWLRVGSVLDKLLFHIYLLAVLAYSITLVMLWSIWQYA
Procedure: as §1, §2

Cannabinoid CB2 = biological target: T4, Cannabinoid CB2 (Homo sapiens, UniProt P34972); assay: SafetyScreen44 217100; type: binding; details: 10 μM; [3H]WIN-55, 212-2; recombinant
T4 construct: Eurofins-Panlabs (contract screen) 217100
T4 sequence (P34972 whole entry): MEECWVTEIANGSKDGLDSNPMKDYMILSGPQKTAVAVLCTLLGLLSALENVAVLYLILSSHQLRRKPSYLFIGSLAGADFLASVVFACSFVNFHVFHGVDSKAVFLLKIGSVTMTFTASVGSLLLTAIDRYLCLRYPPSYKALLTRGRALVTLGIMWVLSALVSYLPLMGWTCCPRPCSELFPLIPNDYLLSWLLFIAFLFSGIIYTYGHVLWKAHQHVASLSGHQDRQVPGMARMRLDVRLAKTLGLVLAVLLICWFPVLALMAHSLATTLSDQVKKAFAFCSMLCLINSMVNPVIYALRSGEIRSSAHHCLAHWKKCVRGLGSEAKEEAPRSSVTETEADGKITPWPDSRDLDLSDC
Procedure: as §1, §2

Muscarinic M1 = biological target: T5, Muscarinic M1 (Homo sapiens, UniProt P11229); assay: SafetyScreen44 252610; type: binding; details: 10 μM; [3H]N-Methylscopolamine; recombinant
T5 construct: purchased Eurofins-Panlabs (contract screen SafetyScreen44) assay ID 252610
T5 sequence (P11229 whole entry): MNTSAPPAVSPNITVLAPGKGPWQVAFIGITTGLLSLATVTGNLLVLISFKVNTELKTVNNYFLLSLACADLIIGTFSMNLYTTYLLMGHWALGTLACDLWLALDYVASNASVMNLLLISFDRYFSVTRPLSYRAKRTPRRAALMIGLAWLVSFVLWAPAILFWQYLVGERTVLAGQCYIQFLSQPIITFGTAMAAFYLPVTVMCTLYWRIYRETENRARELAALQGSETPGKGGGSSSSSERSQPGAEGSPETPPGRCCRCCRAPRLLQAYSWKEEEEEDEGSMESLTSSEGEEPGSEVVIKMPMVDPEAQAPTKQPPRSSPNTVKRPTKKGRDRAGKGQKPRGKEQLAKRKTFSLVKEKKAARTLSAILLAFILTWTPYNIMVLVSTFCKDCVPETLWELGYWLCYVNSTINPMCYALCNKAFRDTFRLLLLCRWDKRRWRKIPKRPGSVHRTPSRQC
Procedure: as §1, §2

Adenosine A2A = biological target: T6, Adenosine A2A (Homo sapiens, UniProt P29274); assay: SafetyScreen44 200610; type: binding; details: 10 μM; [3H]CGS-21680; recombinant
T6 construct: Eurofins-Panlabs (contract screen) 200610
T6 sequence (P29274 whole entry): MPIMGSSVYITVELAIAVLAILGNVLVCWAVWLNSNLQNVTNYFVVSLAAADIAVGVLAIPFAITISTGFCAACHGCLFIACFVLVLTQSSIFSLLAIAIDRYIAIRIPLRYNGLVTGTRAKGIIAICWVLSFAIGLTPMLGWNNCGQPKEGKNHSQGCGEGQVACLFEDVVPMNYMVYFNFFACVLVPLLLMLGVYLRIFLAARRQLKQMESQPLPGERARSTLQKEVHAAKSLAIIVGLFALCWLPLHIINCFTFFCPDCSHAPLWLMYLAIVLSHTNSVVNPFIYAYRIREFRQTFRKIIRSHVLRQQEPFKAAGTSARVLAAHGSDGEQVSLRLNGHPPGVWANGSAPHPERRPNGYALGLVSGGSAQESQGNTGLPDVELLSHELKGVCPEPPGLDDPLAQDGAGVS
Procedure: as §1, §2

Adrenergic alpha1A = biological target: T7, Adrenergic alpha1A (Homo sapiens, UniProt P35348); assay: SafetyScreen44 203110; type: binding; details: 10 μM; [3H]Prazosin; recombinant
T7 construct: Eurofins-Panlabs (contract screen) 203110
T7 sequence (P35348 whole entry): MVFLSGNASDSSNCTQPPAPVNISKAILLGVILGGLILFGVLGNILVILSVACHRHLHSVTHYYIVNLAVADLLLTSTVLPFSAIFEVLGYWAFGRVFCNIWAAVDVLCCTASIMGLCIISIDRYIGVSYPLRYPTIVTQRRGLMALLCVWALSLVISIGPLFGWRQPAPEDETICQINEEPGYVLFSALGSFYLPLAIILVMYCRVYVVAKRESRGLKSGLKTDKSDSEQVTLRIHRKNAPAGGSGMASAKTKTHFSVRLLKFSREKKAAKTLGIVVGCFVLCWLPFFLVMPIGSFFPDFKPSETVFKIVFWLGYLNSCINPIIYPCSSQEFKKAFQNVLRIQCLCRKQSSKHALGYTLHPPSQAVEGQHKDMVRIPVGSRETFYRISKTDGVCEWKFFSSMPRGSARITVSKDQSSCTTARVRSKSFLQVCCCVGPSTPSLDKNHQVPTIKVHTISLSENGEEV
Procedure: as §1, §2

Androgen (Testosterone) = biological target: T8, Androgen (Testosterone) (Homo sapiens, UniProt P10275, T878A); assay: SafetyScreen44 206000; type: binding; details: 10 μM; [3H]Methyltrienolone; LNCaP clone FGC cells
T8 construct: Eurofins-Panlabs (contract screen) 206000
T8 sequence (P10275 whole entry T878A): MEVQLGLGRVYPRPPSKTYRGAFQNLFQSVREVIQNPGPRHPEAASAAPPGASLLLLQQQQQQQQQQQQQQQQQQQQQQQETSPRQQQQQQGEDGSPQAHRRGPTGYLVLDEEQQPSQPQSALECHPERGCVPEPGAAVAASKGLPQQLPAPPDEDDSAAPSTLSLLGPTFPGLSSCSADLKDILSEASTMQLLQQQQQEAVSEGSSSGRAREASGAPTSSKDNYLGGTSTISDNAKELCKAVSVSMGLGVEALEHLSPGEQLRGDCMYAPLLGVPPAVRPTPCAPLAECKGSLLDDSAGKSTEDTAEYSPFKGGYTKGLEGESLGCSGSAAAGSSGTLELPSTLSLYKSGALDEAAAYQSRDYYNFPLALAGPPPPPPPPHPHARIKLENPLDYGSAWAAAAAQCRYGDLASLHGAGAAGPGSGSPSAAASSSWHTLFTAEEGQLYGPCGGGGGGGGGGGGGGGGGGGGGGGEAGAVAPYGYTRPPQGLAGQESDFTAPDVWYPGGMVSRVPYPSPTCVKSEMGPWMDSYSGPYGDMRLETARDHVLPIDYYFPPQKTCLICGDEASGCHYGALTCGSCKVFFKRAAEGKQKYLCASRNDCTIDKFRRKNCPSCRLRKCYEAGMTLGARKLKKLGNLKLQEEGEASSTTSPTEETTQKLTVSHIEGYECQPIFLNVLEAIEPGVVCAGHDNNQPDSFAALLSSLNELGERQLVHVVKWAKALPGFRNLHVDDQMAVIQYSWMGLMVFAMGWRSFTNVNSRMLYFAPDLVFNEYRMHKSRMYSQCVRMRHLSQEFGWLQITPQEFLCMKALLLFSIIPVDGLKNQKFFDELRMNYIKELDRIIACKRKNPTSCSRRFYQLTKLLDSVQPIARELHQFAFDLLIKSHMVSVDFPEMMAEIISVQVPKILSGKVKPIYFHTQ
Procedure: as §1, §2

[5] = system: Calcium Channel L-Type, Dihydropyridine; assay: SafetyScreen44 214600; type: binding, rat; details: 10 μM; [3H]Nitrendipine; cerebral cortex
Procedure: as §1, §2

**Q.** For `CC[C@@H](N)Cc1cc(OC)c(C)cc1OC` [(R)-Ariadne], which “symptoms in subjects with Parkinson's disease” value (patients; 100 mg per day) is on record?
**A.** Its value is “nearly complete remission of symptoms”.

**Q.** And the “psychotic symptoms in schizophrenia and bipolar disorder” value (patients; 50-100 mg per day)?
**A.** Its value is “rapid remission of psychotic symptoms”.

**Q.** And the hallucinogenic effects (patients; up to and beyond 100 mg per day, including patients with psychosis)?
**A.** Its hallucinogenic effects is “lack of hallucinogenic effects”.

**Q.** What about the “number of balance beam runs per minute” value [1] of the same molecule?
**A.** Its value is “significantly higher and comparable to WT mice”.

**Q.** And the EC50 (5-HT2A)?
**A.** The EC50 was 0.03 µM.

**Q.** And the Emax (5-HT2A; read-out: Emax relative to 5-HT, calcium flux)?
**A.** Its Emax is 96%.

**Q.** For `CCC(N)Cc1cc(OC)c(C)cc1OC` (racemic) [Compound 32, 1-(2,5-dimethoxy-4-methylphenyl)butan-2-amine], which “% Response” value ([2]; listed as (rac)-Ariadne) is on record?
**A.** The value was “more than 50%”.

**Q.** And the “% Response” value ([2]; listed as Ariadne)?
**A.** The value was 72%.

**Q.** What about the “% Response” value [3] of the same molecule?
**A.** Its value is 3%.

**Q.** And the “% Response” value [4]?
**A.** Its value is −13%.

**Q.** And the “% Response” value (Cannabinoid CB2)?
**A.** Its value is −7%.

**Q.** And the “% Response” value (Muscarinic M1)?
**A.** Its value is −4%.

**Q.** What about the “% Response” value (Adenosine A2A) of the same molecule?
**A.** Its value is 10%.

**Q.** And the “% Response” value (Adrenergic alpha1A)?
**A.** The value was 24%.

**Q.** And the “% Response” value (Androgen (Testosterone))?
**A.** The value was −8%.

**Q.** What about the “% Response” value [5] of the same molecule?
**A.** The value was −13%.
